Consider 16 compounds from patent US20260274832A1, “COMPOUNDS AND THEIR USE IN TREATING CANCER” (ASTRAZENECA AB, priority 2023, published 2026).

Usually DC50 stands for the midpoint of the concentration-degradation curve. Read a low DC50 as a more potent degrader. For orientation: Dmax means the greatest extent of degradation seen.

Assay [1] has as its target T1, AR (AR-full length) in LNCaP cells (Homo sapiens, UniProt P10275, T878A).
T1 construct: the prostate cancer cell line LNCaP (expressing AR-full length); endogenous in cells; host or cells: LNCaP
In words: LNCaP Androgen Receptor Imaging Assay (immunofluorescence of endogenous nuclear AR). Format: cell-based. As to conditions: 24 h incubation; for DC50: concentration giving 50% of maximum degradation of AR per curve fit, single experiment or average of two or more; for Dmax: LNCaP, maximum degradation observed, normalized as % of positive control (prior art AR PROTAC at 3 μM). In outline: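 Endogenous nuclear AR level was imaged by immunofluorescence after 24 h compound exposure (12-point dose response, 0.3% DMSO, 37° C./5% CO2) in LNCaP cells. Data were expressed as % of a 3 μM prior-art AR PROTAC control and fitted (bell fit where a hook appeared) to give DC50 and maximum degradation Dmax.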

Assay [2] concerns the target T2, AR (L702H) in LNCaP cells (Homo sapiens, UniProt P10275, L702H/T878A).
T2 construct: engineered to introduce the mutation L702H into the AR gene using CRISPR/Cas9; endogenous in cells; host or cells: LNCaP cells edited by CRISPR/Cas9 at the AR gene
Description: LNCaP Androgen Receptor L702H Imaging Assay (LNCaP cells engineered by CRISPR/Cas9). Format: cell-based. The settings on record: LNCaP cells with AR L702H mutation, 24 h incubation; for DC50: concentration giving 50% of maximum degradation of AR (L702H) per curve fit; for Dmax: LNCaP, maximum degradation observed, normalized as % of positive control. The method, boiled down: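 AR (L702H) degradation, expressed as DC50 and Dmax from curve fits normalized to a positive degrader control, was measured by high-content imaging of anti-AR immunofluorescence. The engineered LNCaP line was dosed over 12 concentrations for 24 h, 0.3% DMSO final, before PFA fixation.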

T2 sequence (P10275 whole entry L702H/T878A): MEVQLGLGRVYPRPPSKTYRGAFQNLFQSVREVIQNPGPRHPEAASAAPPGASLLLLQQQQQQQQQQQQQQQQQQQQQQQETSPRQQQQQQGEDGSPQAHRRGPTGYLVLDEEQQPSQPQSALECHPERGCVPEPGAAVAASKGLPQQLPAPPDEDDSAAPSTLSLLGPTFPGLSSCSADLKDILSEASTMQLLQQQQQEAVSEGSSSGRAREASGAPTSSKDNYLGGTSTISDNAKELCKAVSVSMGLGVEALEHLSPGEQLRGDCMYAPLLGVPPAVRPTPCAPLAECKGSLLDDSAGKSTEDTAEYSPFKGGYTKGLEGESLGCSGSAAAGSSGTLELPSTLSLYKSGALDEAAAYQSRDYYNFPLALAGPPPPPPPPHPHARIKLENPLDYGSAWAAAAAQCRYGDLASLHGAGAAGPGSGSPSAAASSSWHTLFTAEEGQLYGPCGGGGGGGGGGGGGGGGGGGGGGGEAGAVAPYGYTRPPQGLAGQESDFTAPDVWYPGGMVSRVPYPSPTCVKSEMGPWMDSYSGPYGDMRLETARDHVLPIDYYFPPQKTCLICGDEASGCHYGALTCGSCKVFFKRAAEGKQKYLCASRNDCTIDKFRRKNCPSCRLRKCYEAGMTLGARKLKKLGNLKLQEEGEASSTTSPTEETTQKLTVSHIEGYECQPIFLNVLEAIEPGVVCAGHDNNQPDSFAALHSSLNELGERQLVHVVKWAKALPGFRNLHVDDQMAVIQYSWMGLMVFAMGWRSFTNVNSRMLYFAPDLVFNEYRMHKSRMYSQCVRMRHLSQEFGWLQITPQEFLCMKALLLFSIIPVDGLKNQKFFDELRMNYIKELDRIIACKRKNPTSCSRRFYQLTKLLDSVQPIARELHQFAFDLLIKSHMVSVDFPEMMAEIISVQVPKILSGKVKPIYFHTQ
T2 sequence (Q96SW2 whole entry partner): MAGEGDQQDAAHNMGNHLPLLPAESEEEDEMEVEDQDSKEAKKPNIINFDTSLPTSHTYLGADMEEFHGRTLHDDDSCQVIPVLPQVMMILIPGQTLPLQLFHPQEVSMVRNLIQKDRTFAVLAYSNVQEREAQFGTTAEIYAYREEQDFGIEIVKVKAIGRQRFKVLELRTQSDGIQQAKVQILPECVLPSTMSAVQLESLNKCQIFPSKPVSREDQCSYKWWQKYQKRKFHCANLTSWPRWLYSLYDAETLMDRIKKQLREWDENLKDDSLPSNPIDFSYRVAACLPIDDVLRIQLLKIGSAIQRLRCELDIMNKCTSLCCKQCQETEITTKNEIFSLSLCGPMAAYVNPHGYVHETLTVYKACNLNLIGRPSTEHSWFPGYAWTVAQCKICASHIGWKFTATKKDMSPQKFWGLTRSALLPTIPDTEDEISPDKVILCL
T1 sequence (P10275 whole entry T878A): as the sequence (P10275 whole entry L702H/T878A) above, with H702L counted along it
T1 sequence (Q96SW2 whole entry partner): as the sequence (Q96SW2 whole entry partner) above

`N#Cc1c[nH]c2c(N3CCC(c4ccc(N5CCC(CN6CCC(n7ccc8c(N9CCC(=O)NC9=O)cccc87)CC6)CC5)nn4)CC3)ccc(Cl)c12` [Example 63, 4-Chloro-7-(4-{6-[4-({4-[4-(2,4-dioxo-1,3-diazinan-1-yl)-1H-indol-1-yl]piperidin-1-yl}methyl)piperidin-1-yl]pyridazin-3-yl}piperidin-1-yl)-1H-indole-3-carbonitrile]: in assay [1], the DC50 was found to be 6 nM and the Dmax stood at 94%. In assay [2], the DC50 was 16 nM and the Dmax was 63%.

As to `N#Cc1c[nH]c2c(N3CCC(c4ccc(N5CCC(CN6CCN(c7ccc8c(c7)CN(C7CCC(=O)NC7=O)C8=O)CC6)CC5)nn4)CC3)ccc(Cl)c12` (stereo not shown) [Example 64, 4-Chloro-7-(4-{6-[4-({4-[2-(2,6-dioxopiperidin-3-yl)-1-oxo-2,3-dihydro-1H-isoindol-5-yl]piperazin-1-yl}methyl)piperidin-1-yl]pyridazin-3-yl}piperidin-1-yl)-1H-indole-3-carbonitrile], the DC50 in assay [1] amounted to 5 nM; in assay [2] it was 8 nM. Also, the values for the Dmax in assay [1] and in assay [2] were 83% and 56%, respectively.

In the case of `N#Cc1c[nH]c2c(N3CCC(c4cnc(N5CCC(CN6CCC(n7ccc8c(N9CCC(=O)NC9=O)cccc87)CC6)CC5)cn4)CC3)ccc(Cl)c12` [Example 67], the DC50 in assay [1] came out at 4 nM; in assay [2], 14 nM. Moreover, the figures for the Dmax in assay [1] and in assay [2] were 98% and 87%, respectively.

Take `N#Cc1c[nH]c2c(N3CCC(c4cnc(N5CCC(CN6CCN(c7ccc8c(c7)CN(C7CCC(=O)NC7=O)C8=O)CC6)CC5)cn4)CC3)ccc(Cl)c12` (stereo not shown) [Example 68, 4-Chloro-7-(4-{5-[4-({4-[2-(2,6-dioxopiperidin-3-yl)-1-oxo-2,3-dihydro-1H-isoindol-5-yl]piperazin-1-yl}methyl)piperidin-1-yl]pyrazin-2-yl}piperidin-1-yl)-1H-indole-3-carbonitrile]: in assay [1], the DC50 was 6 nM and the Dmax turned out to be 97%. Also, in assay [2], the DC50 was 21 nM and the Dmax came to 84%.

For the compound `Cc1ccc(N2CCC(c3ccc(N4CCC(CN5CCN(Cc6cccc7c6n(C)c(=O)n7C6CCC(=O)NC6=O)CC5)CC4)cc3)CC2)c2[nH]cc(C#N)c12` (stereo not shown) [Example 69, 7-[4-(4-{4-[(4-{[1-(2,6-Dioxopiperidin-3-yl)-3-methyl-2-oxo-2,3-dihydro-1H-benzimidazol-4-yl]methyl}piperazin-1-yl)methyl]piperidin-1-yl}phenyl)piperidin-1-yl]-4-methyl-1H-indole-3-carbonitrile], in assay [1], half-maximal degradation (DC50) was put at 9 nM and the Dmax came to 92%. In addition, in assay [2], the DC50 came out at 5 nM and the Dmax was 94%.

Consider `Cn1c(=O)n(C2CCC(=O)NC2=O)c2cccc(CN3CCN(CC4CCN(c5ccc(C6CCN(c7ccc(Cl)c8c(C#N)c[nH]c78)CC6)cc5)CC4)CC3)c21` (stereo not shown) [Example 70, 4-Chloro-7-[4-(4-{4-[(4-{[1-(2,6-dioxopiperidin-3-yl)-3-methyl-2-oxo-2,3-dihydro-1H-benzimidazol-4-yl]methyl}piperazin-1-yl)methyl]piperidin-1-yl}phenyl)piperidin-1-yl]-1H-indole-3-carbonitrile], for which, in assay [1], the DC50 was determined as 9 nM and the Dmax was 97%. For the same compound, in assay [2], it took 9 nM to reach half-maximal degradation (DC50) and the Dmax came out at 101%.

Take `Cn1c(=O)n(C2CCC(=O)NC2=O)c2cccc(CN3CCN(CC4CCN(c5ccc(C6CCN(c7ccc(F)c8c(C#N)c[nH]c78)CC6)cc5)CC4)CC3)c21` (stereo not shown) [Example 71, 7-[4-(4-{4-[(4-{[1-(2,6-Dioxopiperidin-3-yl)-3-methyl-2-oxo-2,3-dihydro-1H-benzimidazol-4-yl]methyl}piperazin-1-yl)methyl]piperidin-1-yl}phenyl)piperidin-1-yl]-4-fluoro-1H-indole-3-carbonitrile]: in assay [1], half-maximal degradation (DC50) was put at 7 nM and the Dmax was determined as 84%. In addition, in assay [2], half-maximal degradation (DC50) was put at 7 nM and the Dmax amounted to 94%.

On to `Cn1c(=O)n(C2CCC(=O)NC2=O)c2cccc(N3CCN(CC4CCN(c5ccc(C6CCN(c7ccc(Cl)c8c(C#N)c[nH]c78)CC6)cc5)CC4)CC3)c21` (stereo not shown) [Example 72, 4-Chloro-7-(4-{4-[4-({4-[1-(2,6-dioxopiperidin-3-yl)-3-methyl-2-oxo-2,3-dihydro-1H-benzimidazol-4-yl]piperazin-1-yl}methyl)piperidin-1-yl]phenyl}piperidin-1-yl)-1H-indole-3-carbonitrile], for which, in assay [1], it took 14 nM to reach half-maximal degradation (DC50) and the Dmax is 91%. Also, in assay [2], half-maximal degradation (DC50) was put at 21 nM and the Dmax was 92%.

`Cn1c(=O)n(C2CCC(=O)NC2=O)c2cccc(CN3CCN(CC4CCN(c5ccc([C@@H]6CCCN(c7ccc(Cl)c8c(C#N)c[nH]c78)C6)cc5)CC4)CC3)c21` (stereo partly drawn) [Example 73, 4-Chloro-7-[(3S)-3-(4-{4-[(4-{[1-(2,6-dioxopiperidin-3-yl)-3-methyl-2-oxo-2,3-dihydro-1H-benzimidazol-4-yl]methyl}piperazin-1-yl)methyl]piperidin-1-yl}phenyl)piperidin-1-yl]-1H-indole-3-carbonitrile]: in assay [1], it took 7 nM to reach half-maximal degradation (DC50) and the Dmax was 93%. In assay [2], half-maximal degradation (DC50) was put at 13 nM and the Dmax worked out at 90%.

For `Cn1c(=O)n(C2CCC(=O)NC2=O)c2cccc(CN3CCN(CC4CCN(c5ccc([C@@H]6CCCN(c7ccc(F)c8c(C#N)c[nH]c78)C6)cc5)CC4)CC3)c21` (stereo partly shown) [Example 74], the DC50 in assay [1] was found to be 8 nM; in assay [2], 21 nM. Also, the Dmax in assay [1] came to 93%; in assay [2] it was 70%.

For `N#Cc1c[nH]c2c(N3CCC(c4ccc(N5CCC(CN6Cc7cc8c(cc7C6)C(=O)N(C6CCC(=O)NC6=O)C8=O)CC5)cc4)CC3)ccc(Cl)c12` (stereo not shown) [Example 75, 4-Chloro-7-{4-[4-(4-{[6-(2,6-dioxopiperidin-3-yl)-5,7-dioxo-3,5,6,7-tetrahydropyrrolo[3,4-f]isoindol-2(1H)-yl]methyl}piperidin-1-yl)phenyl]piperidin-1-yl}-1H-indole-3-carbonitrile], in assay [1], half-maximal degradation (DC50) was put at 62 nM and the Dmax was determined as 68%. In assay [2], half-maximal degradation (DC50) was put at 68 nM and the Dmax worked out at 83%.

On to `N#Cc1n[nH]c2c(N3CCC[C@@H](c4ccc(N5CCC(CN6Cc7cc8c(cc7C6)C(=O)N(C6CCC(=O)NC6=O)C8=O)CC5)cc4)C3)ccc(Cl)c12` (stereo partly drawn) [Example 76, 4-Chloro-7-{(3S)-3-[4-(4-{[6-(2,6-dioxopiperidin-3-yl)-5,7-dioxo-3,5,6,7-tetrahydropyrrolo[3,4-f]isoindol-2(1H)-yl]methyl}piperidin-1-yl)phenyl]piperidin-1-yl}-1H-indazole-3-carbonitrile], for which, in assay [1], the DC50 was determined as 18 nM and the Dmax worked out at 92%. In assay [2], it took 38 nM to reach half-maximal degradation (DC50) and the Dmax worked out at 104%.

As for `N#Cc1c[nH]c2c(N3CCC[C@@H](c4ccc(N5CCC(CN6Cc7cc8c(cc7C6)C(=O)N(C6CCC(=O)NC6=O)C8=O)CC5)cc4)C3)ccc(Cl)c12` (stereo partly drawn) [Example 77, 4-Chloro-7-{(3S)-3-[4-(4-{[6-(2,6-dioxopiperidin-3-yl)-5,7-dioxo-3,5,6,7-tetrahydropyrrolo[3,4-f]isoindol-2(1H)-yl]methyl}piperidin-1-yl)phenyl]piperidin-1-yl}-1H-indole-3-carbonitrile], in assay [1], it took 14 nM to reach half-maximal degradation (DC50) and the Dmax was 79%. In assay [2], the DC50 amounted to 67 nM and the Dmax worked out at 69%.

On to `Cn1c(C2CCN(CC3CCN(c4ccc(C5CCN(c6ccc(Cl)c7c(C#N)c[nH]c67)CC5)cc4)CC3)CC2)cc2ccc(N3CCC(=O)NC3=O)cc21` [Example 84, 4-Chloro-7-(4-{4-[4-({4-[6-(2,4-dioxo-1,3-diazinan-1-yl)-1-methyl-1H-indol-2-yl]piperidin-1-yl}methyl)piperidin-1-yl]phenyl}piperidin-1-yl)-1H-indole-3-carbonitrile], for which the DC50 in assay [1] came out at 22 nM; in assay [2], 12 nM. In addition, the figures for the Dmax in assay [1] and in assay [2] were 99% and 103%, respectively.

On to `N#Cc1c[nH]c2c(N3CCC(c4ccc(C(=O)N5CCC(CN6CCN(c7ccc8c(c7)CN(C7CCC(=O)NC7=O)C8=O)CC6)CC5)cc4)CC3)ccc(Cl)c12` (stereo not shown) [Example 85, 4-Chloro-7-(4-{4-[4-({4-[2-(2,6-dioxopiperidin-3-yl)-1-oxo-2,3-dihydro-1H-isoindol-5-yl]piperazin-1-yl}methyl)piperidine-1-carbonyl]phenyl}piperidin-1-yl)-1H-indole-3-carbonitrile], for which, in assay [1], the DC50 turned out to be 4 nM and the Dmax turned out to be 98%. For the same compound, in assay [2], the DC50 worked out at 17 nM and the Dmax turned out to be 83%.

For `COc1nc(N2CCN(C3CCN(c4ccc(C5CCN(c6ccc(Cl)c7c(C#N)c[nH]c67)CC5)cc4)CC3)CC2)cc2c1C(=O)N(C1CCC(=O)NC1=O)C2` (stereo not shown) [Example 86, 4-Chloro-7-{4-[4-(4-{4-[2-(2,6-dioxopiperidin-3-yl)-4-methoxy-3-oxo-2,3-dihydro-1H-pyrrolo[3,4-c]pyridin-6-yl]piperazin-1-yl}piperidin-1-yl)phenyl]piperidin-1-yl}-1H-indole-3-carbonitrile], in assay [1], it took 15 nM to reach half-maximal degradation (DC50) and the Dmax was determined as 94%. For the same compound, in assay [2], the DC50 is 14 nM and the Dmax came to 99%.
